The values that follow come from patent US8277807B2, “Pharmaceutical combinations” (Astex Therapeutics Limited, priority 2006, dated 2012).

Structures are written as SMILES. Where a name gives a salt, the structure may show the parent alone.

Data set [1] can be described thus: Salt properties of the L-lactate of compound (1). It counts as physicochemical.
A further data set relates to HCT116 cell line. The data set can be described thus: Anti-proliferative activity, Alamar Blue assay. It counts as cell-based. The note with it: Homo sapiens, HCT-116, 72 h, read-out: IC50 value against the HCT116 cell line. As to the method:
The anti-proliferative activities of compounds for use in the combinations of the invention can be determined by measuring the ability of the compounds to inhibition of cell growth in a number of cell lines such as the human colon cancer cell line HCT116. […] The method is based on the ability of viable cells to reduce resazurin to its fluorescent product resorufin. […] The number of viable cells is determined by Alamar Blue assay as before. Cell lines can be obtained from the ECACC (European Collection of cell Cultures).
(The colour change of resazurin is a common sign of viable cells or microbes.)

Data set [2] addresses T1, Human Hsp90α N-terminal domain (Homo sapiens, UniProt P07900).
T1 construct: Cloning, expression, and purification of the Human Hsp90α N-terminal domain were performed according to published methods; made in house
The data set can be described thus: Isothermal titration calorimetry (ITC) binding to Hsp90. The note with it: 25 mM Tris, 100 mM NaCl, 1 mM MgCl2, 1 mM TCEP, 5% DMSO, pH 7.4. On the procedure:
The ability of the compounds for use in the combinations of the invention to bind to human Hsp90 proteins was determined using isothermal titration calorimetry.
Isothermal titration calorimetry (ITC) experiments were performed with a VP-ITC titration calorimeter (Microcal Inc., Northampton, Mass., USA). […] All solutions were filtered and degassed prior to a titration being carried out. The enthalpy change resulting from each injection of ligand was obtained through integration of the calorimetric signal. Data were analysed using Origin 7.0 (Microcal Software Inc., Northampton, Mass.). Heats of dilution were estimated using the final injections of each individual titration and subtracted before data fitting. Different ITC experimental formats were employed in order to obtain compound dissociation constants (Kd's) over a wide range of affinities. […] In this type of experiment the stoichiometry parameter (N) was locked at 1 for data fitting.
For orientation: Isothermal titration calorimetry measures the heat released or taken up as one component is titrated into another.

Data set [3] can be described thus: Solid-state stability of L-lactate crystal forms (XRPD). It counts as physicochemical. The note with it: in air; 40° C. and 75% RH where stated. The source says:
Samples for X-ray powder diffraction (XRPD) data collection were gently ground by marble mortar and loaded into a crystallographic capillary (from Hampton Research, Quartz or Glass Type 10, 0.4 or 0.7 mm diameter). Diffraction patterns were collected at room temperature using CuKα radiation (λ=1.5418 Å) from a Rigaku rotating anode RU3HR, Osmic blue confocal optics, ¼ c goniometer and a Rigaku HTC image plate detector. 2D Images were collected while spinning φ axis with a detector to crystal distance of 250 mm. Data collection was controlled by CrystalClear software and 2D images were converted to 1D plot (20 vs. Intensity) by Datasqueeze (intensity averaged over the azimuthal angle 0<χ<360° for 2θ range 3-30° in 0.02° steps). In house program AstexXRPD was used for manipulation and visualisation of 1D XRPD patterns.

The next data set deals with OVCAR-3 tumour cells. The note with it: concentrations of 50 and 100 microM; PKB amplified; cited from earlier work.
For another data set, the system named is PKC. As to conditions: data published 2002; read-out: IC50, inhibition of PKC; cited from earlier work.
For a further data set, the system named is PKG. As to conditions: data published 2002; read-out: IC50, inhibition of PKG; cited from earlier work.
In the next data set the test system is PKA. The note with it: data published 2002; read-out: IC50, inhibition of PKA; cited from earlier work.
The next data set concerns APL patients. The note with it: in vivo; cited from earlier work.
The subject of data set [4] is P-glycoprotein-overexpressing subline of CCRF-CEM. As to conditions: subline of leukemic cell line CCRF-CEM; Chou et al. 1998; read-out: IC50 against P-glycoprotein-overexpressing subline; cited from earlier work.

Regarding `CC(C)c1cc(C(=O)N2Cc3ccc(CN4CCN(C)CC4)cc3C2)c(O)cc1O.C[C@H](O)C(=O)O` [(2,4-dihydroxy-5-isopropyl-phenyl)-[5-(4-methyl-piperazin-1-ylmethyl)-1,3-dihydro-isoindol-2-yl]-methanone L-lactate salt], in data set [1], the hygroscopicity result is “non-hygroscopic”. The rate of solubility entry in data set [1] (compared with free base and hydrochloric and sulphuric acid salts) was “better rate of solubility than the free base and other salts tested”.
The term IC50 denotes the concentration that inhibits the measured activity by half. `CC(C)c1cc(C(=O)N2Cc3ccccc3C2)c(O)cc1O` [Example 5, (1,3-Dihydro-1H-isoindol-2-yl)-(2,4-dihydroxy-5-isopropyl-phenyl)-methanone]: the IC50 with HCT116 cell line was under 1 µM.
Take `CC(C)c1cc(C(=O)N2Cc3ccc(C(=O)N4CCNCC4)cc3C2)c(O)cc1O` [Example 54, (2,4-dihydroxy-5-isopropyl-phenyl)-[5-(piperazine-1-carbonyl)-1,3-dihydro-isoindol-2-yl]-methanone hydrochloride]: the IC50 in the data set on HCT116 cell line was under 1 µM.
What is called Kd is the constant that tells how readily two partners part at equilibrium. In the case of `CC(C)c1cc(C(=O)N2Cc3ccc(CN4CCN(C)CC4)cc3C2)c(O)cc1O` [Example 55, (2,4-dihydroxy-5-isopropyl-phenyl)-[5-(4-methyl-piperazin-1-ylmethyl)-1,3-dihydro-isoindol-2-yl]-methanone], in [2], the Kd is under 0.1 µM.
Turning to `CC(C)c1cc(C(=O)N2Cc3ccc(CN4CCN(C)CC4)cc3C2)c(O)cc1O.C[C@H](O)C(=O)O` [Form FL1, (2,4-dihydroxy-5-isopropyl-phenyl)-[5-(4-methyl-piperazin-1-ylmethyl)-1,3-dihydro-isoindol-2-yl]-methanone L-lactate], the “stability of crystal form” value in [3] is “stable in air and at 40 °C and 75% RH for at least one month”.
For `CC(C)c1cc(C(=O)N2Cc3ccc(CN4CCN(C)CC4)cc3C2)c(O)cc1O.C[C@H](O)C(=O)O` [Form FL3, (2,4-dihydroxy-5-isopropyl-phenyl)-[5-(4-methyl-piperazin-1-ylmethyl)-1,3-dihydro-isoindol-2-yl]-methanone L-lactate], the “stability of crystal form” value in data set [3] is “transforms in air into form FL1”.
As for `O=S(=O)(NCCNCC=C(c1ccccc1)c1ccccc1)c1cccc2cnccc12` [NL-71-101], in the data set with OVCAR-3 tumour cells, the “Apoptosis in OVCAR-3 tumour cells” value is on record as “induced apoptosis”. Further, the IC50 in the data set on PKC was 104 µM; with PKG, 36 µM; with PKA it was 9 µM.
On to `CC1=C(/C=C/C(C)=C/C=C/C(C)=C/C(=O)O)C(C)(C)CCC1` [Tretinoin, all-trans retinoic acid], for which the “remissions in APL patients” value in the data set with APL patients is reported as 64-100%.
Turning to `C/C1=C/C[C@@H](/C(C)=C/c2csc(C)n2)OC(=O)C[C@H](O)C(C)(C)C(=O)[C@H](C)[C@@H](O)[C@@H](C)CCC1` [desoxyepothilone B], the IC50 in data set [4] is 0.017 µM.
In the case of `CC(C)c1cc(C(=O)N2Cc3ccc(CN4CCN(C)CC4)cc3C2)c(O)cc1O.C[C@H](O)C(=O)O` [form FL2, (2,4-dihydroxy-5-isopropyl-phenyl)-[5-(4-methyl-piperazin-1-ylmethyl)-1,3-dihydro-isoindol-2-yl]-methanone L-lactate], the “stability of crystal form” value in data set [3] was “stable in air”.
